Data as given in US11554182B2, “Macrocyclic complexes of alpha-emitting radionuclides and their use in targeted radiotherapy of cancer” (CORNELL UNIVERSITY, priority 2017, dated 2023).

What was measured:
[1] = Stability of [^225Ac(macropa)]^+ in human serum (radio-TLC); assay type: in vitro ADME
Description: […]. [^225Ac(macropa)]^+ and [^225Ac(DOTA)]^− were prepared using 10^−5 M and 10^−3 M stock solutions (10 μL) of macropa and DOTA, respectively, to give final ligand concentrations of 5.9×10^−7 M (macropa) and 5.9×10^−5 M (DOTA). After confirming a radiochemical yield of >90% by TLC using 0.4 M sodium citrate (pH 4) containing 10% MeOH as the mobile phase, 160 μL of human serum (an equal volume based on labeling reaction volume) were added to each radiolabeled solution. A control solution was also prepared in which water was substituted for ligand. The solutions were monitored over the course of 8 days by iTLC. The plates were developed with EDTA (50 mM, pH 5) as the eluent. Under these conditions, [^225Ac(macropa)]^+ and [^225Ac(DOTA)]^− complexes remained at the baseline (RF=0) and any ^225Ac (^225Ac-EDTA) that had been transchelated by serum migrated with the solvent front (RF=1). Percent of complex remaining intact was calculated.
The long half-life of ^225Ac necessitates its stable complex retention in vivo to avoid off-target damage to normal tissues arising from the release of free ^225Ac^3+. Furthermore, the stability of ^225Ac complexes against transmetalation and transchelation needs to be high. To determine the kinetic inertness, [^225Ac(macropa)]^+ was challenged with La^3+ because of the established high affinity of macropa for this metal ion. […]

[2] = Kinetic inertness of ^225Ac complex: transmetalation challenge with La^3+; assay type: physicochemical; conditions: 50-fold excess of La^3+, macropa 0.59 μM, RT, over 7 days
Description: General. Stock solutions of La(NO3)3 (0.001 M or 0.1 M) were prepared in H2O. To the radiolabeled samples containing macropa (10 μL of 10^−5 M stock; 1.0×10^−10 moles) or DOTA (10 μL of 10^−3 M stock; 1.0×10^−8 moles) and ^225Ac (10 μL, 26 kBq) in NH4OAc buffer (pH 6, 0.15 M, 150 μL), a 50-fold mole excess of La^3+ was added (5 μL of 0.001 M or 0.1 M stock were added to solutions containing macropa and DOTA, respectively). The solutions were kept at room temperature and analyzed by iTLC at several time points over the course of 8 days. The iTLC plates were developed using citric acid (0.05 M, pH 5) as the eluent. Under these conditions, [^225Ac(macropa)]^+ and [^225Ac(DOTA)]^− remained at the baseline (RF=0) and any unchelated ^225Ac (^225Ac-citrate) migrated with the solvent front (RF=1). Percent of complex remaining intact was calculated by integrating area under the peaks on the radiochromatogram and dividing the counts associated with the ^225Ac-complex (RF=0) by the total counts integrated along the length of the iTLC plate.
The long half-life of ^225Ac necessitates its stable complex retention in vivo to avoid off-target damage to normal tissues arising from the release of free ^225Ac^3+. Furthermore, the stability of ^225Ac complexes against transmetalation and transchelation needs to be high. […]

SMILES: O=C([O-])c1cccc(CN2CCOCCOCCN(Cc3cccc(C(=O)[O-])n3)CCOCCOCC2)n1.[225Ac+3] [[^225Ac(macropa)]^+]
- time ^225Ac^3+ remains complexed in human serum [1]: at least 8 days
- ^225Ac complex remaining intact [2]: 98%
